Patent US20210386829A1, “COMPOSITIONS AND METHODS FOR MODULATING CGRP SIGNALING TO REGULATE INNATE LYMPHOID CELL INFLAMMATORY RESPONSES” (The Broad Institute, Inc., priority 2018, published 2021)

System: lung-resident ILCs
Assay: SMART-Seq2 plate-based scRNA-seq of lung-resident ILCs from PBS-, IL-25- or IL-33-treated mice, differential gene expression by logistic regression (Tables 3, 4)
Type: in vivo, mouse
Source text: Mice and in vivo ILC activation. C57B1/6J mice were purchased from the Jackson Laboratory. Nmur1-LacZ reporter mice with a LacZ cassette knocked into the Nmur1 locus were rederived from Nmur1^tm1.1(KOMP)Vlcg sperm obtained from the trans-NIH Knock-Out Mouse Project (KOMP) Repository. NMU-deficient mice (NMU-KO) were rederived from B6.129S2-Nmu<tm1Mko> embryos from the RIKEN BioResource Center. For experiments with Nmur1-LacZ (Nmur1-KO) and NMU-KO mice, littermates that were either homozygous or heterozygous for the wild type allele were used as controls. Mice were housed under specific-pathogen-free conditions. For experiments, mice were matched for sex and age, and most mice were 6-10 weeks old. Where indicated, mice were anesthetized with Isoflurane and treated intranasally with the indicated stimuli (500 ng IL-25, 500 ng IL-33, or 20 μg Neuromedin U) daily for three consecutive days. The total administered volume was 20 μl for all conditions. Mice were randomly assigned to treatment groups after matching for sex and age. […] Mice were treated intranasally with 10 μg HDM on day 0, 7, 8, and 9, prior to sacrifice on day 10. All experiments were conducted in accordance with animal protocols approved by the Harvard Medical Area Standing Committee on Animals or BWH IACUC.
Fluorescence-activated cell sorting of innate lymphoid cells. After dissociation, single cell suspensions were incubated with CD90.2 MicroBeads (Miltenyi Biotec) on ice and enriched for CD90.2^+ cells by magnetic separation using LS columns according to the manufacturer's protocol. CD90.2^+ lung cells were then stained on ice with antibodies for sorting. ILCs were defined as 7AAD^− CD45^+ CD90.2^+ CD127^+ Lineage (CD11b, CD11c, CD19, NK1.1, […], CD4, CD8a, TCRβ, TCRγδ)^− cells and sorted on a BD FACS Aria (BD Biosciences).
For full-length scRNA-Seq, single ILCs were sorted into 96-well plates containing 5 ul TCL Buffer (QIAGEN) with 1% 2-Mercaptoethanol, centrifuged and frozen at −80° C. SMART-Seq2 protocol was carried out as previously described^23 with minor modifications in the reverse transcription step. cDNA was amplified with 22 cycles and fragmented with one-eighth of the standard Illumina NexteraXT reaction volume. Single-cell libraries were pooled and paired-end sequenced (38 bp×2) with a 75 cycle Nextseq 500 high output V2 kit.
Analysis of SMART-Seq2 plate-based scRNA-Seq data. Reads were aligned to mm10 using Kallisto (Bray, N. L., Pimentel, H., Meisted, P. & Pachter, L. Near-optimal probabilistic RNA-seq quantification. Nat Biotechnol 134, 525-527, doi:10.1038/nbt.3519 (2016)) quant, version 0.42.3. The R package tximport (Soneson, C., Love, M. I. & Robinson, M. D. Differential analyses for RNA-seq: transcript-level estimates improve gene-level inferences [version 2; referees: 2 approved]. F1000Research 4, doi:10.12688/f1000research.7563.2 (2016)), version 1.2.0, was used to convert the output to gene counts and traditional TPM values. Because of the variability in read counts per cell across plates, even from the same condition, as well as in the number of genes per cell across conditions, QC was performed for each of eight plates individually in order to remove cells that were outliers with respect to either measure. Out of 752 cells, 606 cells met QC criteria (234 from control, 152 from IL-25 treated mice, and 220 from IL-33 treated mice), and the number of genes per cell in this set ranged from 1,625 to 6,375. Genes that were not expressed with log(TPM)>2.5 in at least two cells were removed from further analysis. Subsequent analysis proceeded analogously to the droplet-based RNA-seq analysis, with parameter settings that reflected both the wider dynamic range of expression and much smaller cell numbers. The minimum ILC signature score required in ILC type assignment was 0.3. Variable genes were identified by running MeanVarPlot with x.low.cutoff=0.1, y.cutoff=1.5, and x.high.cutoff=10, resulting in a set of 519 genes. […]

## IL33
  0610031J06Rik expression coeff: 1.33
  1700017B05Rik expression coeff: −1.5
  1700113H08Rik expression coeff: −1.32
  4632428N05Rik expression coeff: 1.58
  AA467197 expression coeff: 2.99
  AI593442 expression coeff: −3.15
  AI836003 expression coeff: −1.26
  AW112010 expression coeff: 0.998
  Abtb2 expression coeff: 1.34
  Acot7 expression coeff: 1.78
  Adrbk1 expression coeff: 1.08
  Adsl expression coeff: −0.98
  Ahcyl2 expression coeff: −1.24
  Amd1 expression coeff: −1.75
  Anxa2 expression coeff: 1.81
  Ap3d1 expression coeff: 0.94
  Arf5 expression coeff: 0.972
  Arhgap1 expression coeff: 1.12
  Arhgap26 expression coeff: 1.3
  Asl expression coeff: 1.31
  Asph expression coeff: −1.56
  Atp8b4 expression coeff: 1.07
  Atxn7l3b expression coeff: 0.957
  Bcl2a1d expression coeff: 0.97
  Bcl3 expression coeff: 1.42
  Bcl6 expression coeff: 1.98
  Bmp2 expression coeff: −2.03
  Brix1 expression coeff: −1.21
  C1qbp expression coeff: −1.08
  Cap1 expression coeff: 1.24
  Cblb expression coeff: 0.969
  Ccdc50 expression coeff: 0.948
  Ccdc142 expression coeff: −1.56
  Ccng1 expression coeff: 0.916
  Ccr2 expression coeff: −1.11
  Cd247 expression coeff: 1.52
  Chdh expression coeff: 1.07
  Chordc1 expression coeff: 1.09
  Chst11 expression coeff: 1.25
  Cirbp expression coeff: −1.67
  Commd10 expression coeff: −1.3
  Cox10 expression coeff: 0.894
  Cpsf7 expression coeff: 1.13
  Crlf2 expression coeff: 1.16
  Csf1 expression coeff: −1.61
  Cst7 expression coeff: 1.5
  Ctla4 expression coeff: 2.65
  Ctsw expression coeff: 1.07
  Cybrd1 expression coeff: −1.22
  Dcaf12 expression coeff: 0.975
  Ddrgk1 expression coeff: −0.935
  Ddx20 expression coeff: −1.92
  Ddx58 expression coeff: 0.912
  Dennd5a expression coeff: 0.993
  Dgka expression coeff: 1.02
  Dhx35 expression coeff: −1.51
  Dhx37 expression coeff: −0.889
  Dhx58 expression coeff: 2.39
  Dkk3 expression coeff: 0.959
  Dock10 expression coeff: −0.886
  E030030I06Rik expression coeff: −1.01
  Ecm1 expression coeff: 1.16
  Endod1 expression coeff: 1.51
  Epsti1 expression coeff: 1.72
  Eva1b expression coeff: 1.29
  Exosc4 expression coeff: −0.925
  Extl3 expression coeff: −1.19
  Fam118a expression coeff: −0.991
  Fbxl21 expression coeff: −2.6
  Ffar2 expression coeff: 1.38
  Fhl2 expression coeff: −0.933
  Fosb expression coeff: −0.948
  Foxo3 expression coeff: 1.17
  Fus expression coeff: −0.954
  Gal3st3 expression coeff: −1.08
  Gba expression coeff: 0.976
  Gbp4 expression coeff: 0.935
  Gbp6 expression coeff: 1.87
  Gbp9 expression coeff: 1.12
  Gga1 expression coeff: 1.33
  Gigyf1 expression coeff: −0.966
  Glrx expression coeff: 1.26
  Gm12250 expression coeff: 3.39
  Gnai2 expression coeff: 1.04
  Gng2 expression coeff: 1.35
  Gnl3l expression coeff: −1.25
  Gp49a expression coeff: 1.62
  Gpr108 expression coeff: 0.909
  Grn expression coeff: 1.55
  Gskip expression coeff: 1.72
  Gucd1 expression coeff: 1.09
  H2-T9 expression coeff: 1.1
  H2-T10 expression coeff: 0.906
  H2-T22 expression coeff: 1.27
  Herc6 expression coeff: 1.21
  Hpcal1 expression coeff: 1.26
  Hsph1 expression coeff: 1.26
  Idh2 expression coeff: −1.43
  Ifi35 expression coeff: 0.95
  Ifngr2 expression coeff: −0.881
  Ifrd2 expression coeff: −1.74
  Igfbp4 expression coeff: −2.3
  Igsf5 expression coeff: −1.13
  Il2rb expression coeff: 1.27
  Il5 expression coeff: 1.34
  Il13 expression coeff: 1.57
  Impact expression coeff: −1.54
  Inpp1 expression coeff: 1.29
  Inpp4b expression coeff: −0.999
  Inpp5b expression coeff: 1.22
  Irf4 expression coeff: 1.58
  Irf7 expression coeff: 1.43
  Isg15 expression coeff: 3.16
  Isg20 expression coeff: 2.26
  Itgae expression coeff: 1.21
  Kit expression coeff: −1.23
  Krit1 expression coeff: 1.04
  Lamp2 expression coeff: 0.996
  Lancl1 expression coeff: −1.58
  Lat2 expression coeff: 1.05
  Lcmt2 expression coeff: −1.12
  Lgals3bp expression coeff: 1.95
  Lgals3 expression coeff: 1.4
  Lilrb4 expression coeff: 2.11
  Lpcat2 expression coeff: −1.56
  Lsm6 expression coeff: −1.12
  Lxn expression coeff: 1.29
  Ly6a expression coeff: 1.67
  Map2k4 expression coeff: 1.64
  Marf1 expression coeff: 1.15
  Med16 expression coeff: −0.941
  Mfsd1 expression coeff: 1.05
  Mgat1 expression coeff: 1.21
  Mgat5 expression coeff: 1.08
  Mier3 expression coeff: −1.41
  Mkl2 expression coeff: −0.923
  Mlec expression coeff: 0.999
  Morc3 expression coeff: 1.05
  Mov10 expression coeff: 1.45
  Mplkip expression coeff: −1.13
  Mrp63 expression coeff: 1.21
  Mrpl40 expression coeff: −1.08
  Mrpl52 expression coeff: 0.944
  Mrpl53 expression coeff: −1.26
  Mrps18a expression coeff: −1.11
  Ms4a4b expression coeff: 2.44
  Ms4a6b expression coeff: 2.02
  Mtfmt expression coeff: −1.57
  Mxd1 expression coeff: 1.05
  Mybbp1a expression coeff: −0.978
  Myg1 expression coeff: −1.26
  Myo1f expression coeff: 1.04
  Myo1g expression coeff: 1.31
  Naa60 expression coeff: 1.11
  Nbn expression coeff: −1.39
  Ndufaf3 expression coeff: 1.52
  Neu3 expression coeff: −1.92
  Nfil3 expression coeff: 1.77
  Nipal1 expression coeff: 1.74
  Nlrc5 expression coeff: 1.3
  Nol6 expression coeff: −1.23
  Nol9 expression coeff: −1.02
  Nop56 expression coeff: −1.41
  Npc2 expression coeff: 1.53
  Npnt expression coeff: 0.949
  Nrip1 expression coeff: 1.07
  Nsmaf expression coeff: 0.914
  Oas1a expression coeff: 2.09
  Ogfr expression coeff: 1.12
  Omd expression coeff: −1.13
  Parp3 expression coeff: 1.21
  Parp10 expression coeff: 1.34
  Parp14 expression coeff: 1.21
  Paxip1 expression coeff: −0.998
  Pdcd1 expression coeff: 1.35
  Pde4b expression coeff: 1.24
  Per1 expression coeff: −1.16
  Pfas expression coeff: −1.41
  Phc3 expression coeff: 0.936
  Phf11a expression coeff: 1.98
  Phf11b expression coeff: 1.89
  Picalm expression coeff: 1
  Pigv expression coeff: −1.36
  Pin4 expression coeff: 1.28
  Plac8 expression coeff: 1.62
  Plekha5 expression coeff: −1.23
  Plxdc2 expression coeff: −0.903
  Pml expression coeff: 1.2
  Ppif expression coeff: −1.91
  Ppp1r15a expression coeff: −1.09
  Pydc4 expression coeff: 1.37
  Pyhin1 expression coeff: 1.04
  Rab7l1 expression coeff: 2.2
  Rab8b expression coeff: 1.03
  Rab33b expression coeff: −1.1
  Rdh1 expression coeff: −1.91
  Rdh13 expression coeff: −1.75
  Rilpl2 expression coeff: 1.43
  Rnf125 expression coeff: 1.06
  Rtp4 expression coeff: 2.55
  Samd9l expression coeff: 1.2
  Sbno2 expression coeff: 1.2
  Sdc4 expression coeff: −0.924
  Sdccag3 expression coeff: 1.08
  Sema4a expression coeff: −0.903
  Sema4d expression coeff: 1.28
  Sesn3 expression coeff: 1.18
  Shank2 expression coeff: −3.62
  Sipa1 expression coeff: 1.34
  Slc25a24 expression coeff: 1.33
  Slc44a2 expression coeff: 1.22
  Slfn2 expression coeff: 1.6
  Smn1 expression coeff: −1.01
  Sntb1 expression coeff: 1.19
  Soat1 expression coeff: 1.07
  Socs1 expression coeff: −1.32
  Socs2 expression coeff: −1.33
  Socs3 expression coeff: 1.44
  Sp100 expression coeff: 1.07
  Sptssa expression coeff: −0.952
  Ssr3 expression coeff: 0.999
  St3gal6 expression coeff: −1.32
  Stab1 expression coeff: 1.65
  Stat1 expression coeff: 1.23
  Syt11 expression coeff: 0.979
  Taf1d expression coeff: 1.1
  Tango6 expression coeff: −2.16
  Tap1 expression coeff: 1.17
  Tap2 expression coeff: 1.07
  Tet3 expression coeff: 1.32
  Tmem33 expression coeff: 1.08
  Tmem176a expression coeff: −1
  Tmem176b expression coeff: −1.23
  Tmem209 expression coeff: −1.27
  Tmem229b expression coeff: 1.01
  Tnfrsf18 expression coeff: −1.12
  Tnfsf10 expression coeff: −1.88
  Tpm4 expression coeff: 0.969
  Tradd expression coeff: 1.29
  Trafd1 expression coeff: 1.81
  Trim12c expression coeff: 1.16
  Trim30a expression coeff: 1.18
  Trim34a expression coeff: 1.29
  Trim30d expression coeff: 1.14
  Trip13 expression coeff: −2.7
  Trp53inp1 expression coeff: 1.16
  Ttc19 expression coeff: 1.44
  Ttc39b expression coeff: 1.16
  Ube2h expression coeff: 1.05
  Usp18 expression coeff: 1.6
  Usp36 expression coeff: −1.09
  Vdr expression coeff: 2.04
  Vmp1 expression coeff: 1.4
  Xrcc3 expression coeff: −1.02
  Zbp1 expression coeff: 2.38
  Zc3h12a expression coeff: −1.12
  Zcchc10 expression coeff: −0.914
  Zfand6 expression coeff: 1.38
  Zfc3h1 expression coeff: 1.14
  Zfp110 expression coeff: −1.24
  Zfp825 expression coeff: −1.02
